We go through two substances from article doi:10.1101/2022.02.10.479976v1 (bioRxiv, 2022).

What is called half-life is how long it takes for the measured level to halve.

The nature of series [1]: Distribution of calcitonin in sub-compartments of sheep blood in vitro. The format is in vitro ADME. Particulars: calcitonin treated group, 2.5 ng/ml; sum of all five compartments = 100 percent.
For series [2] the following is noted: cited from earlier work.
The conditions of series [3]: cited from earlier work. This is another data set of the same source.
The conditions of series [4]: cited from earlier work. The source holds these as a separate data set.

Values joined by “and” are separate entries in the source; they are usually repeats but may differ in a detail not shown here. Equal values may be shown once.

As for Calcitonin, in series [1], the “distribution of calcitonin associated with RBC” value is reported as “less than 8%”; the “distribution of calcitonin in plasma” value is reported as ~30%; the “distribution of calcitonin on WBC-surface” value was ~30% and ~40%. The half-life in series [2] is 40 to 60 min. Besides, the bioavailability entry in series [2] (parenteral delivery, various formulations) was “up to 70%”. Besides, the “sustained pharmacodynamic effects (duration)” value in series [3] was 18 to 22 h. Further, in series [4], the plasma protein binding is reported as ~40%.

For salmon Calcitonin, the elimination half-life in series [2] is 54 to 76 min.
